Source: paper PMC5979965, “Structure-based discovery of mPGES-1 inhibitors suitable for preclinical testing in wild-type mice as a new generation of anti-inflammatory drugs” (Scientific Reports, 2018)
Like-named read-outs stand apart in the source and are kept apart here.

Columns and labels:
mouse mPGES-1 [1] = biological target: T1, mouse mPGES-1 (Mus musculus, UniProt Q9JM51); test: Activity assay using recombinant mouse mPGES-1 (PGE2 enzyme immunoassay); assay type: biochemical
T1 construct: made in house; host or cells: FreeStyle 293-F cells, mPGES-1/pcDNA3 construct, crude microsomal preparation
T1 sequence (Q9JM51 1-153): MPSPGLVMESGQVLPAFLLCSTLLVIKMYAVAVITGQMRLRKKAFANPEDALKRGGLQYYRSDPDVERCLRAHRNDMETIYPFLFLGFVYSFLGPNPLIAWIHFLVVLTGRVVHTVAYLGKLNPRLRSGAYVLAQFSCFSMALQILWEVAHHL
Excerpt: Our protocols for the protein preparation and in vitro activity assays were the same as described in previous reports[39],[41]–[43]. […] For the structure-activity relationship (SAR), we first investigated the impact of substitution on the central benzene ring on the inhibitory potency. […] The central benzene rings of 4i was originated from salicylaldehydes with chlorine substituted on 5-position. […] The length of the alkoxy side chain was also inspected in compounds 4b and 6.
(§1) 3. In vitro experimental tests
(§2) Preparation of mPGES-1 enzymes. Cloning of mPGES-1 and the protein preparation were described in our previous reports.15 Briefly, FreeStyle Max Expression system was used to express wild -type human and mouse mPGES-1 enzymes separately. FreeStyle 293-F cells were cultured following manufacturer’s manual in FreeStyle 293 expression medium on orbit rotate shaker in 8% CO 2 incubator at 37 °C. Cells were transfected with 1.5 µg/mL of mPGES-1/pcDNA3 construct using FreeStyle Max reagent at a cell density of 1 × 106 for 2 days. Transfected cells were collected, washed, and sonicated in TSES buffer (15 mM Tris-HCl, pH 8.0 plus 0.25 M sucrose, 0.1 mM EDTA and 1 mM DTT) on ice. The broken cells were first centrifuged at 12,500 × g for 10 min. The supernatant was further centrifuged at 105,000 × g for 1 hr at 4 °C. The pellet was washed and homogenized in PBS buffer. The crude microsomal mPGES -1 preparations were aliquoted and stored at -80 °C before use.
(§3) PGH2 (stored in dry ice). […] After 1
(§4) Following the formation of […]

mice [2] = details: mouse, in vivo, po, 50 mg/kg
Experimental: (§5) Animals. Wild-type CD-1 mice (28-35 g) were ordered from Harlan (Indianapolis, IN), and housed
(§6) for a week prior to the experimental studies. All animals were allowed ad libitum access to food and water
(§7) and maintained on a 12 h light/12 h dark cycle, with the lights on at 8:00 am at a room temperature of 21–
(§8) 22 °C. Experiments were performed in a same colony room in accordance with the Guide for the Care and
(§9) Use of Laboratory Animals as adopted and promulgated by the National Institutes of Health. The animal
(§10) protocol was approved by the IACUC (Institutional Animal Care and Use Committee) at the University
(§11) Preparation of pictures during acute toxicity testing. Mice were divided into three groups and
(§12) treated with oral administration of a single dose of vehicle (Wesson vegetable oil, Memphis, TN), 4b (250
(§13) mg/mL in Wesson vegetable oil at the dose of 1 g/kg), and celecoxib (12.5 mg/mL in Wesson vegetable

human mPGES-1 = biological target: T2, human mPGES-1 (Homo sapiens, UniProt O14684); test: Activity assay using recombinant human mPGES-1 (PGE2 enzyme immunoassay); assay type: biochemical
T2 construct: made in house; host or cells: FreeStyle 293-F cells, mPGES-1/pcDNA3 construct, crude microsomal preparation
T2 sequence (O14684 1-152): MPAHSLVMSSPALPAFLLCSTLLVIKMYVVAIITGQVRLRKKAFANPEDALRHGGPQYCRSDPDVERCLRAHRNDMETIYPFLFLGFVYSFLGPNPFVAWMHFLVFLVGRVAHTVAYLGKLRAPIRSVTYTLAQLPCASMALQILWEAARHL
Experimental: Our protocols for the protein preparation and in vitro activity assays were the same as described in previous reports[39],[41]–[43]. […] For the structure-activity relationship (SAR), we first investigated the impact of substitution on the central benzene ring on the inhibitory potency. […] The length of the alkoxy side chain was also inspected in compounds 4b and 6.
Purity was determined by HPLC (Waters 1525 Binary HPLC pump, Waters 2487 Dual λ Absorbance Detector, and Waters 717plus Autosampler, Milford, MA) at λ of […] using acetonitrile and 0.1% […]
TFA (70:30) as mobile phase.
as §1, §2, §3, §4

mouse mPGES-1 [3] = biological target: T1, mouse mPGES-1; details: cited from earlier work
rat enzyme (mPGES-1) = details: cited from earlier work
mice [4] = test: Acute toxicity/safety testing in mice after PO administration
Experimental: as §5, §6, §7, §8, §9, §10, §11, §12, §13

PGE2 levels in kidney = test: Wild-type mice based air-pouch model of inflammation (carrageenan), PGE2 by ELISA; details: for PGE2 levels in mice (kidney): 24 hours, vs vehicle
[5] = IC50 (nM) against mPGES-1, Mouse mPGES-1, Mean ± SD of measurements in triplicate

CC(C)c1ccc2c(c1)c(SC(C)(C)C)c(CC(C)(C)C(=O)O)n2Cc1ccc(Cl)cc1 [MK-886, reference compound]
inhibition of mouse mPGES-1 (mouse mPGES-1 [1]; concentration not given): without significant inhibition

Cc1ccc(-c2cc(C(F)(F)F)nn2-c2ccc(S(N)(=O)=O)cc2)cc1 [celecoxib]
bleeding spots on the inner side of stomach samples (mice [2]): at least one bleeding spot | finding at gastric mucosa (mice [2]): bleeding ulcer was observed | toxicity in mice (mice [2]): very toxic for stomach and other issues of mice

O=C1NC(=O)C(=Cc2cc(Cl)ccc2OCCCCC2CCCCC2)C(=O)N1 [Compound 4i]
IC50 (human mPGES-1): 87 ± 27 nM | IC50 (mouse mPGES-1 [1]; [5]): 19100 ± 3490 nM | IC50 (mouse mPGES-1 [1]; IC50 against the mouse enzyme): > 10000 nM

O=C1NC(=O)C(=Cc2ccc(OCCCC3CCCCC3)c(Cl)c2)C(=O)N1 [Compound 6]
IC50 (human mPGES-1): 69 ± 16 nM | IC50 (mouse mPGES-1 [1]; [5]): 292 ± 47 nM

N#Cc1cccc(C#N)c1-c1nc2c3ccc(Cl)cc3c3ccccc3c2[nH]1 [MF63, 2-(6-chloro-1H-phenanthro[9,10-d]imidazol-2-yl)-isophthalonitrile]
inhibition against mouse mPGES-1 at 10 µM (mouse mPGES-1 [1]; 10 µM): no significant inhibition | activity against the mouse enzyme, previously reported (mouse mPGES-1 [3]): without significant activity | activity against the rat enzyme, previously reported (rat enzyme (mPGES-1)): without significant activity

O=C1NC(=O)C(=Cc2ccc(OCCCCC3CCCCC3)c(Cl)c2)C(=O)N1 [Compound 4b]
IC50 (human mPGES-1): 33 ± 3 nM | IC50 (mouse mPGES-1 [1]; [5]): 157 ± 31 nM | bleeding spots on the inner side of stomach samples (mice [4]; 24 hr after PO, 1 g/kg in oil): did not find any bleeding spot | toxic signs in mice (mice [4]; PO, high dose up to 1 g/kg, observation for 14 days): did not cause any toxic sign | PGE2 levels in mice (kidney) (PGE2 levels in kidney; PO, 5 mg/kg single dose): significantly decreased | PGE2 levels in mice (kidney) (PGE2 levels in kidney; PO, 10 mg/kg single dose): significantly decreased | PGE2 levels in mice (kidney) (PGE2 levels in kidney; SC, 0.1 mg/kg single dose): significantly decreased | PGE2 levels in mice (kidney) (PGE2 levels in kidney; SC, 1 mg/kg single dose): significantly decreased | PGE2 levels in mice (kidney) (PGE2 levels in kidney; SC, 10 mg/kg single dose): significantly decreased | oral bioavailability (PGE2 levels in kidney; inferred from PO activity in mice): orally bioavailable
